Measured values taken from EP1202975B1, “SUBSTITUTED POLYCYCLIC ARYL AND HETEROARYL PYRAZINONES USEFUL FOR SELECTIVE INHIBITION OF THE COAGULATION CASCADE” (Pharmacia Corporation, priority 1999, dated 2000).
Where two headings read alike, the source gives them in different places.

Assays:
[1] = molecular target: T1, TF-VIIa (Homo sapiens, UniProt P08709); assay: TF-VIIa Assay; assay type: biochemical
T1 construct: 2nM recombinant human factor VIIa; purchased American Diagnostica, Greenwich CT; host or cells: soluble TF made in house in E. coli

[2] = molecular target: T2, Human factor Xa (Homo sapiens, UniProt P00742); assay: Xa Assay
[3] = molecular target: T2, Human factor Xa
[4] = cells given as a plain number (IC50); read-out: IC50 or % Inhibition TF-VIIa (30 µM)
[5] = read-out: IC50 or % Inhibition TF-VIIa (30 µM); cells given as a plain number (IC50)
[6] = read-out: IC50 or % Inhibition Factor Xa (30 µM), cells given as a plain number (IC50)
[7] = cells given as a plain number (IC50)

T2 sequence (P00742 235-488 limits assumed): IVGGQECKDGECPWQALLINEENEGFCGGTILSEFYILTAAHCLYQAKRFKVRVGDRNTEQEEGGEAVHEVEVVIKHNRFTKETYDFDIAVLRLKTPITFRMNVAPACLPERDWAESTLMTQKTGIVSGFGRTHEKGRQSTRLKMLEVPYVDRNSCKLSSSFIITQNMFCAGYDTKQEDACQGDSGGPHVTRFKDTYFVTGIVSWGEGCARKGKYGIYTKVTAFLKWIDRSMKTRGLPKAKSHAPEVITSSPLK
T2 sequence (P00742 41-179 limits assumed): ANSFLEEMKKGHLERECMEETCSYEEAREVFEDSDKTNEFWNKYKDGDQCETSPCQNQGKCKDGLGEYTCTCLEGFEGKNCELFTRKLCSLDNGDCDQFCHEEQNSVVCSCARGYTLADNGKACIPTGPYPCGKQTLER
T1 sequence (P08709 213-466 limits assumed): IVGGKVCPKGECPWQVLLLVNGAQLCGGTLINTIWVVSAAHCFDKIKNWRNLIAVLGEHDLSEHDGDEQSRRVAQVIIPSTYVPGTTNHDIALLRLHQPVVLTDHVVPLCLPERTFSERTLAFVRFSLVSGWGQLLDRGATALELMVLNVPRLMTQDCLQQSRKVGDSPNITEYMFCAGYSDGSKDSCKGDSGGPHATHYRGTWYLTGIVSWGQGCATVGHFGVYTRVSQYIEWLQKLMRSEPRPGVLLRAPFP
T1 sequence (P08709 61-212 limits assumed): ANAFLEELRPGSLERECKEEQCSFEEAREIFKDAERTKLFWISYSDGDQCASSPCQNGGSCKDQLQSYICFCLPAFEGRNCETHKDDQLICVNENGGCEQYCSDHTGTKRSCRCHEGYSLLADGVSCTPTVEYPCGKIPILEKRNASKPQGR
T1 sequence (P13726 33-251 partner limits assumed): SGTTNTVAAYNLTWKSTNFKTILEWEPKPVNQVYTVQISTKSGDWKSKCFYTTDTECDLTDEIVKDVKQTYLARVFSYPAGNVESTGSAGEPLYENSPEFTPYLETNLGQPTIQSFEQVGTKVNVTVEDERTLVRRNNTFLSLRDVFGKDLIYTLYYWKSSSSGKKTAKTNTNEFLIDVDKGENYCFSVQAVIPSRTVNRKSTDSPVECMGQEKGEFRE

| Structure (SMILES) | IC50 [1, 5] [µM] | IC50 [2, 6] [µM] | other results |
| --- | --- | --- | --- |
| N=C(N)c1ccc(CNC(=O)Cn2c(-c3ccccc3)c(Cl)nc(NCCc3ccncc3)c2=O)cc1 [1471-13] | – | – | IC50 [1, 4]: 1.47 µM; IC50 or % Inhibition Factor Xa (30 µM) ([2]; % inhibition at 30 µM): 0% |
| N=C(N)c1ccc(CNC(=O)Cn2c(-c3cccc(Cl)c3)c(Cl)nc(NCc3ccccc3)c2=O)cc1 [1471-25] | – | – | IC50 or % Inhibition Factor Xa (30 µM) ([2]; % inhibition at 30 µM): 31% |
| N=C(N)c1ccc(CNC(=O)Cn2c(-c3ccccc3)c(Cl)nc(NCc3ccc(OC(F)(F)F)cc3)c2=O)cc1 [1507-04] | 29.5 | > 30 | – |
| N=C(N)c1ccc(CNC(=O)Cn2c(-c3ccccc3)c(Cl)nc(NCCc3ccc(Br)cc3)c2=O)cc1 [1507-06] | 20 | > 30 | – |
| N=C(N)c1ccc(CNC(=O)Cn2c(-c3ccccc3)c(Cl)nc(NC(Cc3ccccc3)c3ccccc3)c2=O)cc1 (stereo not drawn) [1507-07] | – | > 30 | IC50 or % Inhibition TF-VIIa (30 µM) [1]: 25% |
| COc1ccc(CCNc2nc(Cl)c(-c3ccccc3)n(CC(=O)NCc3ccc(C(=N)N)cc3)c2=O)cc1 [1507-11] | 3 | > 30 | – |
| COc1cccc(CCNc2nc(Cl)c(-c3ccccc3)n(CC(=O)NCc3ccc(C(=N)N)cc3)c2=O)c1 [1507-12] | 6.7 | > 30 | – |
| COc1ccc(CNc2nc(Cl)c(-c3ccccc3)n(CC(=O)NCc3ccc(C(=N)N)cc3)c2=O)cc1 [1507-13] | 26.7 | > 30 | – |
| N=C(N)c1ccc(CNC(=O)Cn2c(-c3ccccc3)c(Cl)nc(NCc3ccccc3C(F)(F)F)c2=O)cc1 [1507-15] | 12 | > 30 | – |
| N=C(N)c1ccc(CNC(=O)Cn2c(-c3ccccc3)c(Cl)nc(NCCc3cccs3)c2=O)cc1 [1507-18] | – | > 30 | – |
| N=C(N)c1ccc(CNC(=O)Cn2c(-c3ccccc3)c(Cl)nc(NCc3ccc(Cl)cc3Cl)c2=O)cc1 [1507-22] | – | > 30 | IC50 or % Inhibition TF-VIIa (30 µM) [1]: 45% |
| N=C(N)c1ccc(CNC(=O)Cn2c(-c3ccccc3)c(Cl)nc(NC3CCCC3)c2=O)cc1 [1507-25] | 1.6 | > 30 | – |
| N=C(N)c1ccc(CNC(=O)Cn2c(-c3ccccc3)c(Cl)nc(NCc3ccc(F)cc3F)c2=O)cc1 [1507-26] | 20.5 | > 30 | – |
| N=C(N)c1ccc(CNC(=O)Cn2c(-c3ccccc3)c(Cl)nc(NCc3cccc4ccccc34)c2=O)cc1 [1507-28] | – | > 30 | IC50 or % Inhibition TF-VIIa (30 µM) [1]: 38% |
| N=C(N)c1ccc(CNC(=O)Cn2c(-c3ccccc3)c(Cl)nc(NC3CCCCCC3)c2=O)cc1 [1507-29] | – | – | IC50 [1, 4]: 5.8 µM; IC50 or % Inhibition Factor Xa (30 µM) ([2]; % inhibition at 30 µM): 4% |
| N=C(N)c1ccc(CNC(=O)Cn2c(-c3ccccc3)c(Cl)nc(NCc3ccc(Br)cc3)c2=O)cc1 [1507-30] | 13.4 | > 30 | – |
| N=C(N)c1ccc(CNC(=O)Cn2c(-c3ccccc3)c(Cl)nc(NC3CC3)c2=O)cc1 [1507-31] | 3.7 | > 30 | – |
| CC(C)CNc1nc(Cl)c(-c2ccccc2)n(CC(=O)NCc2ccc(C(=N)N)cc2)c1=O [1507-32] | – | > 30 | IC50 [1, 4]: 21.3 µM |
| C[C@H](Nc1nc(Cl)c(-c2ccccc2)n(CC(=O)NCc2ccc(C(=N)N)cc2)c1=O)c1ccccc1 [1507-34] | 8.5 | > 30 | – |
| N=C(N)c1ccc(CNC(=O)Cn2c(-c3ccccc3)c(Cl)nc(NC3CCS(=O)(=O)C3)c2=O)cc1 (stereo not drawn) [1507-36] | – | – | IC50 [1, 4]: 13.8 µM; IC50 or % Inhibition Factor Xa (30 µM) ([2]; % inhibition at 30 µM): 0% |

| Structure (SMILES) | IC50 [1, 5] [µM] | IC50 [2, 6] [µM] | other results |
| --- | --- | --- | --- |
| N=C(N)c1ccc(CNC(=O)Cn2c(-c3ccccc3)c(Cl)nc(NCc3cccc(Cl)c3)c2=O)cc1 [1507-38] | 16 | > 30 | – |
| N=C(N)c1ccc(CNC(=O)Cn2c(-c3ccccc3)c(Cl)nc(NCc3cccc(F)c3)c2=O)cc1 [1507-42] | 11.6 | > 30 | – |
| Cc1ccc(CCNc2nc(Cl)c(-c3ccccc3)n(CC(=O)NCc3ccc(C(=N)N)cc3)c2=O)cc1 [1507-45] | 7.3 | > 30 | – |
| CCCCNc1nc(Cl)c(-c2ccccc2)n(CC(=O)NCc2ccc(C(=N)N)cc2)c1=O [1512-14] | – | – | IC50 [1, 4]: 3.2 µM; IC50 or % Inhibition Factor Xa (30 µM) ([2]; % inhibition at 30 µM): 7% |
| N=C(N)c1ccc(CNC(=O)Cn2c(-c3ccccc3)c(Cl)nc(NC3CCCCCC3)c2=O)cc1 [1512-16] | – | – | IC50 [1, 4]: 6.5 µM; IC50 or % Inhibition Factor Xa (30 µM) ([2]; % inhibition at 30 µM): 10% |
| N=C(N)c1ccc(CNC(=O)Cn2c(-c3ccccc3)c(Cl)nc(NC3CCS(=O)(=O)C3)c2=O)cc1 (stereo not drawn) [1512-19] | – | – | IC50 [1, 4]: 14.3 µM; IC50 or % Inhibition Factor Xa (30 µM) ([2]; % inhibition at 30 µM): 3% |
| N=C(N)c1ccc(CNC(=O)Cn2c(-c3cccc(C(F)(F)F)c3)c(Cl)nc(NCc3ccccc3)c2=O)cc1 [1515-01] | 7 | > 30 | – |
| COc1ccccc1-c1c(Cl)nc(NCc2ccccc2)c(=O)n1CC(=O)NCc1ccc(C(=N)N)cc1 [1515-02] | 3.8 | > 30 | – |
| N=C(N)c1ccc(CNC(=O)Cn2c(-c3ccccc3Cl)c(Cl)nc(NCc3ccccc3)c2=O)cc1 [1515-04] | 5.2 | > 30 | – |
| COc1cccc(-c2c(Cl)nc(NCc3ccccc3)c(=O)n2CC(=O)NCc2ccc(C(=N)N)cc2)c1 [1515-05] | 4 | > 30 | – |
| N=C(N)c1ccc(CNC(=O)Cn2c(-c3cccs3)c(Cl)nc(NCc3ccccc3)c2=O)cc1 [1515-06] | 1.7 | > 30 | – |
| N=C(N)c1ccc(CNC(=O)Cn2c(-c3ccc(F)cc3)c(Cl)nc(NCc3ccccc3)c2=O)cc1 [1515-07] | 14.2 | > 30 | – |
| N=C(N)c1ccc(CNC(=O)Cn2c(-c3cccc(F)c3)c(Cl)nc(NCc3ccccc3)c2=O)cc1 [1515-09] | 4.1 | > 30 | – |
| N=C(N)c1ccc(CNC(=O)Cn2c(-c3cccc(Br)c3)c(Cl)nc(NCc3ccccc3)c2=O)cc1 [1515-10] | 5.7 | > 30 | – |
| N=C(N)c1ccc(CNC(=O)Cn2c(-c3ccccc3F)c(Cl)nc(NCc3ccccc3)c2=O)cc1 [1515-11] | 4.3 | > 30 | – |
| N=C(N)c1ccc(CNC(=O)Cn2c(-c3ccccc3C(F)(F)F)c(Cl)nc(NCc3ccccc3)c2=O)cc1 [1515-12] | 6.3 | > 30 | – |
| COc1ccccc1-c1c(Cl)nc(NC2CCC2)c(=O)n1CC(=O)NCc1ccc(C(=N)N)cc1 [1515-14] | 2.9 | > 30 | – |
| N=C(N)c1ccc(CNC(=O)Cn2c(-c3ccccc3Cl)c(Cl)nc(NC3CCC3)c2=O)cc1 [1515-16] | 8.8 | > 30 | – |
| COc1cccc(-c2c(Cl)nc(NC3CCC3)c(=O)n2CC(=O)NCc2ccc(C(=N)N)cc2)c1 [1515-17] | 4.4 | > 30 | – |
| N=C(N)c1ccc(CNC(=O)Cn2c(-c3cccs3)c(Cl)nc(NC3CCC3)c2=O)cc1 [1515-18] | 0.6 | > 30 | – |

| Structure (SMILES) | IC50 [1, 5] [µM] | IC50 [2, 6] [µM] | other results |
| --- | --- | --- | --- |
| N=C(N)c1ccc(CNC(=O)Cn2c(-c3ccc(F)cc3)c(Cl)nc(NC3CCC3)c2=O)cc1 [1515-19] | 24.2 | > 30 | – |
| N=C(N)c1ccc(CNC(=O)Cn2c(-c3ccccc3)c(Cl)nc(N3CCC3)c2=O)cc1 [1522-28] | – | > 30 | – |
| Nc1ccc(CNC(=O)Cn2c(Cc3ccccc3)c(Cl)nc(NCCc3ccccc3)c2=O)cn1 [Example 9] | – | – | IC50 or % Inhibition Factor Xa (30 µM) [2, 7]: >0 µM |
| Nc1ccc(CNC(=O)Cn2c(CCc3ccccc3)c(Cl)nc(NCCc3ccccc3)c2=O)cn1 [Example 10, 3-(2-Phenylethylamino)-5-chloro-6-phenethyl-1-(2-amino-5-methylcarboxamidomethylpyridinyl)pyrazinone] | – | – | IC50 or % Inhibition Factor Xa (30 µM) [2, 7]: >0 µM |
| N=C(N)c1ccc(CNC(=O)Cn2c(-c3ccccc3)c(Cl)nc(CN)c2=O)cc1 [Example 18] | – | – | IC50 or % Inhibition Factor Xa (30 µM) ([2]; % inhibition at 30 µM): 0% |
| Nc1cccc(-c2c(Cl)nc(NC3CCC3)c(=O)n2CC(=O)NCCCc2ccnc(N)n2)c1 [Example 26] | – | – | IC50 or % Inhibition Factor Xa (30 µM) ([2]; % inhibition at 30 µM): 5% |
| N=C(N)c1ccc(CNC(=O)Cn2c(-c3ccccc3)c(Cl)nc(NCCN)c2=O)cc1 [Example 44] | – | – | IC50 or % Inhibition Factor Xa (30 µM) ([2]; % inhibition at 30 µM): 4% |
| N=C(N)c1ccc(CNC(=O)Cn2c(-c3ccccc3)c(Cl)nc(NCCCN)c2=O)cc1 [Example 45] | – | – | IC50 or % Inhibition Factor Xa (30 µM) ([2]; % inhibition at 30 µM): 9% |
| N=C(N)c1ccc(CNC(=O)Cn2c(-c3ccccc3)c(Cl)nc(NCCCCN)c2=O)cc1 [Example 46] | – | – | IC50 or % Inhibition Factor Xa (30 µM) ([2]; % inhibition at 30 µM): 10% |
| CC(C)Nc1nc(Cl)c(-c2cccc([N+](=O)[O-])c2)n(CC(=O)NCc2ccc(C#N)cc2)c1=O [Example 59] | – | – | IC50 or % Inhibition Factor Xa (30 µM) ([2]; % inhibition at 30 µM): 2% |
| CC(=O)Nc1cccc(-c2c(Cl)nc(NCCc3ccccc3)c(=O)n2CC(=O)NCc2ccc(C(=N)N)cc2)c1 [Example 100] | – | – | IC50 [2]: > 30 µM |
| CS(=O)(=O)Nc1cccc(-c2c(Cl)nc(NCCc3ccccc3)c(=O)n2CC(=O)NCc2ccc(C(=N)N)cc2)c1 [Example 101] | – | – | IC50 [2]: > 30 µM |
| N=C(N)c1ccc(CNC(=O)Cn2c(-c3ccccc3)cnc(NS(=O)(=O)c3ccccc3)c2=O)cc1 [Example 105] | – | – | IC50 or % Inhibition Factor Xa (30 µM) ([2]; % inhibition at 30 µM): 5% |
| COc1ccc(-c2c(Cl)nc(NCc3ccccc3)c(=O)n2CC(=O)NCCc2cccnc2)cc1 [Example E-0098] | – | – | % Inhibition TF-VIIa (100 µM) [1]: 0%; % Inhibition Factor Xa (100 µM) [3]: 2% |
| COc1ccc(-c2c(Cl)nc(NCCc3cccc(Cl)c3)c(=O)n2CC(=O)NCCc2cccnc2)cc1 [Example E-0104] | – | – | % Inhibition TF-VIIa (100 µM) [1]: 3%; % Inhibition Factor Xa (100 µM) [3]: 5% |
| COc1ccc(-c2c(Cl)nc(NCCc3ccc(Cl)cc3)c(=O)n2CC(=O)NCCc2cccnc2)cc1 [Example E-0107] | – | – | % Inhibition TF-VIIa (100 µM) [1]: 4%; % Inhibition Factor Xa (100 µM) [3]: 6% |
| O=C(Cn1c(-c2ccc(-c3ccccc3)cc2)c(Cl)nc(NCc2ccccc2)c1=O)NCCc1cccnc1 [Example E-0110] | – | – | % Inhibition TF-VIIa (100 µM) [1]: 0%; % Inhibition Factor Xa (100 µM) [3]: 3% |
| CSc1ccc(N)cc1-c1c(Cl)nc(NC(C)C)c(=O)n1CC(=O)NCc1ccc(C(=N)N)cc1 [compound 76] | – | – | IC50 or % Inhibition Factor Xa (30 µM) ([2]; % inhibition at 30 µM): 0% |
| CNc1cccc(-c2c(Cl)nc(NCCc3ccccc3)c(=O)n2CC(=O)NCc2ccc(C(=N)N)cc2)c1 [compound 95] | – | > 30 | – |
